In patent US11279687B2, “Compounds and compositions for the inhibition of NAMPT” (Valo Health, Inc., priority 2010, dated 2022):
Like-named read-outs stand apart in the source and are kept apart here.

What was measured:
NAMPT = NAMPT (Homo sapiens (Human), UniProt P43490); test: NAMPT biochemical inhibition assay (NMN quantified by mass spectrometry); conditions: NAMPT biochemical inhibition; read-out: Biochem IC50
A2780 cells = test: In-vitro cell proliferation assay (SRB), A2780 cells; type: cell-based; conditions: A2780 cells, 72 hours, SRB, read-out: A2780 IC50;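 note: viable cell number read as SRB absorbance, background from media-only wells subtracted, IC50 interpolated from percent inhibition at two bracketing compound concentrations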

Chain of NAMPT (P43490 whole entry): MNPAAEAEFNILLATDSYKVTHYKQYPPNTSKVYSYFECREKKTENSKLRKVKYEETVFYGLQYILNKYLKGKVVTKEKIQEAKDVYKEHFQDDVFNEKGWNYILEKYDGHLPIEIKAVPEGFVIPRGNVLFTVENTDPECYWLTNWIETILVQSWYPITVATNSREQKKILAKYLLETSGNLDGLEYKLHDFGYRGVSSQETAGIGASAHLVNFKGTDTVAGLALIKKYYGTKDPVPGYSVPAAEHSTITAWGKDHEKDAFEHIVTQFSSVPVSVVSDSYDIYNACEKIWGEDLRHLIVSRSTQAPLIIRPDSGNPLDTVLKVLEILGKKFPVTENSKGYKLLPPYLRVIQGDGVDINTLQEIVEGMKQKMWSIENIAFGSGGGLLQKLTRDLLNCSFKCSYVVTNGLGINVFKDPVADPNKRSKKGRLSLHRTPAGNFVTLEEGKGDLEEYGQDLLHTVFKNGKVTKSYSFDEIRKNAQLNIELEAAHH

Row | SMILES | IC50 (NAMPT) | IC50 (A2780 cells; Homo sapiens, A2780, 72 h) | IC50 (A2780 cells)
1 | CCc1ccc(S(=O)(=O)c2ccc(NC(=O)NCc3cccnc3)cc2)cc1 [3-{4-[(4-ethylbenzene)sulfonyl]phenyl}-1-(pyridin-3-ylmethyl)urea] | 3 nM | 533 nM | –
2 | COc1cc(F)ccc1S(=O)(=O)c1ccc(NC(=O)NCc2cccnc2)cc1 [3-{4-[(4-fluoro-2-methoxybenzene)sulfonyl]phenyl}-1-(pyridin-3-ylmethyl)urea] | 2 nM | 28.2 nM | –
3 | COc1cc(F)ccc1NS(=O)(=O)c1ccc(NC(=O)NCc2cccnc2)cc1 [3-{4-[(4-fluoro-2-methoxyphenyl)sulfamoyl]phenyl}-1-(pyridin-3-ylmethyl)urea] | 7 nM | 116 nM | –
4 | Cc1cc(F)ccc1S(=O)(=O)c1ccc(NC(=O)NCc2cccnc2)cc1 [3-{4-[(4-fluoro-2-methylbenzene)sulfonyl]phenyl}-1-(pyridin-3-ylmethyl)urea] | 5 nM | 287 nM | –
5 | COc1cc(S(=O)(=O)c2ccc(NC(=O)NCc3cccnc3)cc2)ccc1F [3-{4-[(4-fluoro-3-methoxybenzene)sulfonyl]phenyl}-1-(pyridin-3-ylmethyl)urea] | 3.7 nM | 44.6 nM | –
6 | Cc1cc(S(=O)(=O)c2ccc(NC(=O)NCc3cccnc3)cc2)ccc1F [3-{4-[(4-fluoro-3-methylbenzene)sulfonyl]phenyl}-1-(pyridin-3-ylmethyl)urea] | 3.7 nM | 100 to 1000 nM | –
7 | CS(=O)(=O)c1ccc(S(=O)(=O)c2ccc(NC(=O)NCc3cccnc3)cc2)cc1 [3-{4-[(4-methanesulfonylbenzene)sulfonyl]phenyl}-1-(pyridin-3-ylmethyl)urea] | 2 nM | 91 nM | –
8 | COc1ccc(S(=O)(=O)c2ccc(NC(=O)NCc3cccnc3)cc2)c(C)c1 [3-{4-[(4-methoxy-2-methylbenzene)sulfonyl]phenyl}-1-(pyridin-3-ylmethyl)urea] | 8 nM | 352 nM | –
9 | COc1c(C)cc(S(=O)(=O)c2ccc(NC(=O)NCc3cccnc3)cc2)cc1C [3-{4-[(4-methoxy-3,5-dimethylbenzene)sulfonyl]phenyl}-1-(pyridin-3-ylmethyl)urea] | 2.1 nM | 8.9 nM | –
10 | COc1ccc(S(=O)(=O)c2ccc(NC(=O)NCc3cccnc3)cc2)cc1 [3-{4-[(4-methoxybenzene)sulfonyl]phenyl}-1-(pyridin-3-ylmethyl)urea] | 2.4 nM | 100 to 1000 nM | –
11 | Cc1ccc(S(=O)(=O)c2ccc(NC(=O)NCc3cccnc3)cc2)cc1 [3-{4-[(4-methylbenzene)sulfonyl]phenyl}-1-(pyridin-3-ylmethyl)urea] | 4.33 nM | 141 nM | –
12 | CC(C)(C)c1ccc(NS(=O)(=O)c2ccc(NC(=O)NCc3cccnc3)cc2)c(Cl)c1 [3-{4-[(4-tert-butyl-2-chlorophenyl)sulfamoyl]phenyl}-1-(pyridin-3-ylmethyl)urea] | 1.4 nM | 97 nM | –
13 | COc1ccc(C(C)=O)cc1S(=O)(=O)c1ccc(NC(=O)NCc2cccnc2)cc1 [3-{4-[(5-acetyl-2-methoxybenzene)sulfonyl]phenyl}-1-(pyridin-3-ylmethyl)urea] | 1.3 nM | 1.7 nM | –
14 | COc1ccc(Cl)cc1S(=O)(=O)c1ccc(NC(=O)NCc2cccnc2)cc1 [3-{4-[(5-chloro-2-methoxybenzene)sulfonyl]phenyl}-1-(pyridin-3-ylmethyl)urea] | 5 nM | 21 nM | –
15 | Cc1ccc(Cl)cc1NS(=O)(=O)c1ccc(NC(=O)NCc2cccnc2)cc1 [3-{4-[(5-chloro-2-methylphenyl)sulfamoyl]phenyl}-1-(pyridin-3-ylmethyl)urea] | 1 nM | 35 nM | –
16 | COc1ccc(F)cc1S(=O)(=O)c1ccc(NC(=O)NCc2cccnc2)cc1 [3-{4-[(5-fluoro-2-methoxybenzene)sulfonyl]phenyl}-1-(pyridin-3-ylmethyl)urea] | 2 nM | 4 nM | –
17 | COc1ccc(F)cc1NS(=O)(=O)c1ccc(NC(=O)NCc2cccnc2)cc1 [3-{4-[(5-fluoro-2-methoxyphenyl)sulfamoyl]phenyl]-1-(pyridin-3-ylmethyl)urea] | 1 nM | 33 nM | –
18 | Cc1ccc(F)cc1S(=O)(=O)c1ccc(NC(=O)NCc2cccnc2)cc1 [3-{4-[(5-fluoro-2-methylbenzene)sulfonyl]phenyl}-1-(pyridin-3-ylmethyl)urea] | 4 nM | 489 nM | –
19 | COc1ccc(C)c(NS(=O)(=O)c2ccc(NC(=O)NCc3cccnc3)cc2)c1 [3-{4-[(5-methoxy-2-methylphenyl)sulfamoyl]phenyl}-1-(pyridin-3-ylmethyl)urea] | 2 nM | 79 nM | –
20 | CCN(Cc1ccccc1)S(=O)(=O)c1ccc(NC(=O)NCc2cccnc2)cc1 [3-{4-[benzyl(ethyl)sulfamoyl]phenyl}-1-(pyridin-3-ylmethyl)urea] | 0.9 nM | 7 nM | –
21 | CN(Cc1ccccc1)S(=O)(=O)c1ccc(NC(=O)NCc2cccnc2)cc1 [3-{4-[benzyl(methyl)sulfamoyl]phenyl}-1-(pyridin-3-ylmethyl)urea] | 1.1 nM | 107 nM | –

Row | SMILES | IC50 (NAMPT) | IC50 (A2780 cells; Homo sapiens, A2780, 72 h) | IC50 (A2780 cells)
22 | CC(C)N(Cc1ccccc1)S(=O)(=O)c1ccc(NC(=O)NCc2cccnc2)cc1 [3-{4-[benzyl(propan-2-yl)sulfamoyl]phenyl}-1-(pyridin-3-ylmethyl)urea] | 2 nM | 26 nM | –
23 | CCN(C1CCCCC1)S(=O)(=O)c1ccc(NC(=O)NCc2cccnc2)cc1 [3-{4-[cyclohexyl(ethyl)sulfamoyl]phenyl}-1-(pyridin-3-ylmethyl)urea] | 5 nM | 123 nM | –
24 | O=C(NCc1ccc[n+]([O-])c1)Nc1ccc([S+]([O-])c2ccc(Cl)cc2)cc1 (stereo not shown) [3-{[({4-[(4-chlorobenzene)sulfinyl]phenyl}carbamoyl)amino]methyl}pyridin-1-ium-1-olate] | 444 nM | – | 20600 nM
25 | O=C(NCc1ccc[n+]([O-])c1)Nc1ccc(S(=O)(=O)c2ccc(Cl)cc2)cc1 [3-{[({4-[(4-chlorobenzene)sulfonyl]phenyl}carbamoyl)amino]methyl}pyridin-1-ium-1-olate] | 728 nM | – | > 30000 nM
26 | O=C(NCc1ccc2nccn2c1)Nc1ccc(S(=O)(=O)N2CC3CCC(C2)O3)cc1 [3-{imidazo[1,2-a]pyridin-6-ylmethyl}-1-(4-{8-oxa-3-azabicyclo[3.2.1]octane-3-sulfonyl}phenyl)urea] | 8 nM | 6 nM | –
27 | O=C(Nc1cccnc1)c1ccc(S(=O)(=O)c2ccccc2)cc1 [4-(benzenesulfonyl)-N-(pyridin-3-yl)benzamide] | 1890 nM | 2730 nM | –
28 | O=C(NCc1cccnc1)c1ccc(S(=O)(=O)c2ccccc2)cc1 [4-(benzenesulfonyl)-N-(pyridin-3-ylmethyl)benzamide] | 80.5 nM | 216 nM | –
29 | O=C(Nc1ccncc1)c1ccc(S(=O)(=O)c2ccccc2)cc1 [4-(benzenesulfonyl)-N-(pyridin-4-yl)benzamide] | 651 nM | 1310 nM | –
30 | O=C(NCc1ccn2ccnc2c1)c1ccc(S(=O)(=O)c2ccccc2)cc1 [4-(benzenesulfonyl)-N-{imidazo[1,2-a]pyridin-7-ylmethyl}benzamide] | 30.8 nM | 25.9 nM | –
31 | O=C(NCc1ccc2nccn2c1)c1ccc(S(=O)(=O)c2ccccc2Cl)cc1 [4-[(2-chlorobenzene)sulfonyl]-N-{imidazo[1,2-a]pyridin-6-ylmethyl}benzamide] | 19.5 nM | 3.92 nM | –
32 | O=C(NCc1ccc2nccn2c1)c1ccc(S(=O)(=O)c2cc(F)cc(F)c2)cc1 [4-[(3,5-difluorobenzene)sulfonyl]-N-{imidazo[1,2-a]pyridin-6-ylmethyl}benzamide] | 17.7 nM | 5.71 nM | –
33 | O=C(NCc1ccc2nccn2c1)c1ccc(S(=O)(=O)c2cccc(Cl)c2)cc1 [4-[(3-chlorobenzene)sulfonyl]-N-{imidazo[1,2-a]pyridin-6-ylmethyl}benzamide] | 12.1 nM | 6.39 nM | –
34 | O=C(NCc1ccc2nccn2c1)c1ccc(S(=O)(=O)Nc2cccc(Cl)c2)cc1 [4-[(3-chlorophenyl)sulfamoyl]-N-{imidazo[1,2-a]pyridin-6-ylmethyl}benzamide] | 138 nM | 7.12 nM | –
35 | COc1ccc(Cl)cc1NS(=O)(=O)c1ccc(C(=O)NCCc2cccnc2)cc1 [4-[(5-chloro-2-methoxyphenyl)sulfamoyl]-N-[2-(pyridin-3-yl)ethyl]benzamide] | 4720 nM | 31.2 nM | –
36 | COc1ccc(Cl)cc1NS(=O)(=O)c1ccc(C(=O)NCc2ccc3nccn3c2)cc1 [4-[(5-chloro-2-methoxyphenyl)sulfamoyl]-N-{imidazo[1,2-a]pyridin-6-ylmethyl}benzamide] | 2.16 nM | 2.3 nM | –
37 | NC(=O)c1ccc(CNC(=O)Nc2ccc(S(=O)(=O)N3CCCCC3)cc2)cn1 [5-[({[4-(piperidine-1-sulfonyl)phenyl]carbamoyl}amino)methyl]pyridine-2-carboxamide] | > 10000 nM | 27500 nM | –
38 | CCN(CC)C(=O)[C@H]1CCCN(S(=O)(=O)c2ccc(NC(=O)NCc3cccnc3)cc2)C1 [(3S)-N,N-diethyl-1-[(4-{[(pyridin-3-ylmethyl)carbamoyl]amino}benzene)sulfonyl]piperidine-3-carboxamide] | 6 nM | – | 25 nM
39 | CCN(CC)C(=O)c1ccccc1NS(=O)(=O)c1ccc(NC(=O)NCc2cccnc2)cc1 [N,N-diethyl-2-[(4-{[(pyridin-3-ylmethyl)carbamoyl]amino]benzene)sulfonamido]benzamide] | 8 nM | – | 6 nM
40 | CCN(CC)C(=O)CN1CCN(S(=O)(=O)c2ccc(NC(=O)NCc3cccnc3)cc2)CC1 [N,N-diethyl-2-{4-[(4-{[(pyridin-3-ylmethyl)carbamoyl]amino}benzene)sulfonyl]piperazin-1-yl}acetamide] | 5 nM | 45 nM | –
41 | CCN(CC)C(=O)c1cc(F)cc(S(=O)(=O)c2ccc(NC(=O)NCc3cccnc3)cc2)c1 [N,N-diethyl-3-fluoro-5-[(4-{[(pyridin-3-ylmethyl)carbamoyl]amino[benzene)sulfonyl]benzamide] | 1.2 nM | – | 1.5 nM
